Measured values from article PMC7793975, “Design and Optimization of Quinazoline Derivatives: New Non-nucleoside Inhibitors of Bovine Viral Diarrhea Virus” (Frontiers in Chemistry, 2020).
Where two headings read alike, the source gives them in different places.

Legend:
[1] = Cytotoxicity assay (MTS/PMS); conditions: bovine
Experimental: (§1) (A) Cytotoxicity. Sub-confluent MDBK cell monolayers grown in 96-well plates were treated with 2-fold serial dilutions of each compound in IM. Mock-treated cells were added as control. Cells were incubated and allowed to proliferate for 3 days at 37°C and 5% CO2. Cell viability was then determined by the MTS/PMS method. (B) Antiviral activity. Sub-confluent MDBK cell monolayers grown in 96-well plates were infected with BVDV NADL (MOI = 0.01) and treated with different concentrations of the compounds. Mock-infected cells and mock-treated infected cells were included as controls in each plate. After 3 days at 37°C and 5% CO2, cell viability was determined by the MTS/PMS method, and the percentage of the viral CPE inhibition was calculated.
(§2) MDBK cells were seeded in 96-well plates at a density of 1 × 10^4 cells per well in GM. After 24 h, the culture medium was removed, monolayers were washed twice with phosphate-buffered saline (PBS), and serial dilutions of the test compounds were made in E-MEM supplemented with donor horse serum (DHS, Gibco, IM) and added. Cultures were incubated for 3 days at 37°C, and then, cell viability was determined by the MTS/PMS method according to the manufacturer's instructions (Promega). After incubation for 3 h at 37°C and 5% CO2, the absorbance was determined at 490 nm. The 50% cytotoxic concentration (CC50) was defined as the concentration of compound that inhibited the proliferation of exponentially growing cells by 50% and was calculated by interpolation in dose–response curves.

MDBK cells = assay: Cytotoxicity assay (MTS/PMS); conditions: MDBK cells, 3 days
Experimental: as §1, §2

BVDV type 1 NADL strain = assay: Anti-BVDV assay (CPE reduction, MTS/PMS); type: cell-based, Bovine viral diarrhea virus; conditions: for EC50: BVDV NADL in MDBK cells, MOI 0.01, 3 days, reduces viral CPE by 50%, Inactive: <50% of inhibition of CPE at MNCC; for SI (CC50/EC50): in vitro selectivity index, MDBK cells / BVDV NADL
Experimental: (A) Cytotoxicity. […] Mock-treated cells were added as control. […] (B) Antiviral activity.
Madin-Darby bovine kidney cells (MDBK NBL-1; ATCC CCL-22) were grown in Eagle's Minimum Essential Medium (E-MEM), supplemented with 10% biotechnological fetal bovine serum (Internegocios, Argentina) (GM) at 37°C and 5% CO2. The BVDV type 1 NADL strain, cytopathic biotype (BVDV-1, ATCC VR 534), was provided by Dr. Laura Weber (INTA Castelar, Argentina).
Then, serial dilutions of the test compounds in IM were added. […] After incubation for 3 days at 37°C and 5% CO2, the culture medium was removed, cell monolayers were washed twice with PBS, and IM supplemented with MTS/PMS was added to each well. The absorbance of each well was read at 490 nm. The EC50 was defined as the concentration of compound that prevented 50% of the virus-induced CPE and was calculated by interpolation in dose–response curves.

[2] = Bovine viral diarrhea virus isolates and strains, MDBK, 72 h, read-out: EC50

With c1ccc(-c2nc(NCCN3CCOCC3)c3ccccc3n2)cc1 [Compound 1, N-(2-morpholinoethyl)-2-phenylquinazolin-4-amine] the CC50 at 3 days ([1]; MDBK cells) was 55.9 ± 8.2 µM, the “MNCC (maximum non-cytotoxic concentration)” value (MDBK cells) was 10.9 ± 1.4 µM and the EC50 (BVDV type 1 NADL strain; [2]) was 9.7 ± 0.5 µM. The “SI (CC50/EC50)” value (BVDV type 1 NADL strain) was 5.8.

With c1ccc(-c2nc(NCc3cccnc3)c3ccccc3n2)cc1 [Compound 1.1] the “MNCC (maximum non-cytotoxic concentration)” value (MDBK cells) was 12.0 ± 0.1 µM and the EC50 (BVDV type 1 NADL strain) was “Inactive^f”.

For Cc1ccc(CNc2nc(-c3ccccc3)nc3ccccc23)cc1 [Compound 1.2], the “MNCC (maximum non-cytotoxic concentration)” value (MDBK cells) was 6.0 ± 0.2 µM and the EC50 (BVDV type 1 NADL strain) was “Inactive”.

For COc1ccc(Nc2nc(-c3ccccc3)nc3ccccc23)cc1 [Compound 1.3], the “MNCC (maximum non-cytotoxic concentration)” value (MDBK cells) was 6.0 ± 0.2 µM and the EC50 (BVDV type 1 NADL strain) was “Inactive”.

With c1ccc(CNc2nc(-c3ccccc3)nc3ccccc23)cc1 [Compound 1.4] the “MNCC (maximum non-cytotoxic concentration)” value (MDBK cells) was 6.0 ± 0.3 µM and the EC50 (BVDV type 1 NADL strain) was “Inactive”.

For FC(F)(F)c1cccc(CNc2nc(-c3ccccc3)nc3ccccc23)c1 [Compound 1.5], the “MNCC (maximum non-cytotoxic concentration)” value (MDBK cells) was 6.0 ± 0.1 µM and the EC50 (BVDV type 1 NADL strain) was “Inactive”.

In the case of CCCCCCNc1nc(-c2ccccc2)nc2ccccc12 [Compound 1.6, N-Hexyl-2-phenylquinazolin-4-amine], the “MNCC (maximum non-cytotoxic concentration)” value (MDBK cells) is reported as 12.0 ± 0.2 µM and the EC50 (BVDV type 1 NADL strain) is reported as “Inactive”.

In the case of CN(C)CCCNc1nc(-c2ccccc2)nc2ccccc12 [Compound 1.7, N^1,N^1-Dimethyl-N^3-(2-phenylquinazolin-4-yl)propane-1,3-diamine], the CC50 at 3 days ([1]; MDBK cells) is reported as 57 ± 0.01 µM, the “MNCC (maximum non-cytotoxic concentration)” value (MDBK cells) is reported as 18.6 ± 2.6 µM and the EC50 (BVDV type 1 NADL strain; [2]) is reported as 4.6 ± 1 µM. The “SI (CC50/EC50)” value (BVDV type 1 NADL strain) was 12.4.

For CN1CCN(c2nc(-c3ccccc3)nc3ccccc23)CC1 [Compound 1.8, 4-(4-Methylpiperazin-1-yl)-2-phenylquinazoline], the CC50 at 3 days ([1]; MDBK cells) was 68 ± 8.4 µM, the “MNCC (maximum non-cytotoxic concentration)” value (MDBK cells) was 19.8 ± 4.0 µM and the EC50 (BVDV type 1 NADL strain; [2]) was 1.4 ± 0.1 µM. The “SI (CC50/EC50)” value (BVDV type 1 NADL strain) was 48.6.

With c1ccc(-c2nc(NCCN3CCCCC3)c3ccccc3n2)cc1 [Compound 1.10, 2-Phenyl-N-[2-(Piperidin-1-yl)ethyl]quinazolin-4-amine] the CC50 at 3 days ([1]; MDBK cells) was 19.6 ± 6.3 µM, the “MNCC (maximum non-cytotoxic concentration)” value (MDBK cells) was 6.4 ± 1.1 µM and the EC50 (BVDV type 1 NADL strain; [2]) was 1.4 ± 0.8 µM. For the same molecule, the “SI (CC50/EC50)” value (BVDV type 1 NADL strain) was 14.0.

In the case of c1ccc(CN2CCC(Nc3nc(-c4ccccc4)nc4ccccc34)CC2)cc1 [Compound 1.11, N-(1-Benzylpiperidin-4-yl)-2-phenylquinazolin-4-amine], the CC50 at 3 days ([1]; MDBK cells) is reported as 22.2 ± 1.2 µM, the “MNCC (maximum non-cytotoxic concentration)” value (MDBK cells) is reported as 7.5 ± 0.1 µM and the EC50 (BVDV type 1 NADL strain) is reported as “Inactive”.

In the case of CC1(C)CC(Nc2nc(-c3ccccc3)nc3ccccc23)CC(C)(C)N1 [Compound 1.12, 2-Phenyl-N-(2,2,6,6-tetramethylpiperidin-4-yl)quinazolin-4-amine], the CC50 at 3 days ([1]; MDBK cells) is reported as 7.4 ± 0.03 µM, the “MNCC (maximum non-cytotoxic concentration)” value (MDBK cells) is reported as 3.3 ± 0.7 µM and the EC50 (BVDV type 1 NADL strain; [2]) is reported as 1.4 ± 0.3 µM. The “SI (CC50/EC50)” value (BVDV type 1 NADL strain) was 5.3.

With [O-][n+]1ccc(CNc2nc(-c3ccccc3)nc3ccccc23)cc1 [Compound 1.13, 4-{[(2-Phenylquinazolin-4-yl)amino]methyl}pyridine 1-oxide] the CC50 at 3 days ([1]; MDBK cells) was over 100 µM and the EC50 (BVDV type 1 NADL strain) was “Inactive”.

In the case of CN1CCN(c2nc(-c3ccc([N+](=O)[O-])cc3)nc3ccccc23)CC1 [Compound 1.14, 4-(4-Methylpiperazin-1-yl)-2-(4-nitrophenyl)quinazoline], the CC50 at 3 days ([1]; MDBK cells) is reported as 13 ± 3.4 µM, the “MNCC (maximum non-cytotoxic concentration)” value (MDBK cells) is reported as 8.7 ± 1.6 µM and the EC50 (BVDV type 1 NADL strain) is reported as “Inactive”.

In the case of O=[N+]([O-])c1ccc(-c2nc(NCCN3CCCCC3)c3ccccc3n2)cc1 [Compound 1.15, 2-(4-Nitrophenyl)-N-[2-(piperidin-1-yl)ethyl]quinazolin-4-amine], the CC50 at 3 days ([1]; MDBK cells) is reported as 30.2 ± 0.5 µM, the “MNCC (maximum non-cytotoxic concentration)” value (MDBK cells) is reported as 14.6 ± 3.1 µM and the EC50 (BVDV type 1 NADL strain; [2]) is reported as 5.8 ± 0.6 µM. The “SI (CC50/EC50)” value (BVDV type 1 NADL strain) was 5.2.

With O=[N+]([O-])c1ccc(-c2nc(N3CCN(CCO)CC3)c3ccccc3n2)cc1 [Compound 1.16, 2-{4-[2-(4-Nitrophenyl)quinazolin-4-yl]piperazin-1-yl}ethanol] the CC50 at 3 days ([1]; MDBK cells) was 12 ± 2.1 µM, the “MNCC (maximum non-cytotoxic concentration)” value (MDBK cells) was 5.9 ± 1.4 µM and the EC50 (BVDV type 1 NADL strain) was “Inactive”.

In the case of OCCN1CCN(c2nc(-c3ccc(Cl)cc3Cl)nc3ccccc23)CC1 [Compound 1.17, 2-{4-[2-(2,4-Dichlorophenyl)quinazolin-4-yl]piperazin-1-yl}ethanol], the CC50 at 3 days ([1]; MDBK cells) is reported as 31.5 ± 5.7 µM, the “MNCC (maximum non-cytotoxic concentration)” value (MDBK cells) is reported as 17.4 ± 3.0 µM and the EC50 (BVDV type 1 NADL strain) is reported as “Inactive”.

With CN(C)c1ccc(-c2nc(N3CCN(CCO)CC3)c3ccccc3n2)cc1 [Compound 1.18, 2-(4-{2-[4-(N,N-Dimethylamino)phenyl]quinazolin-4-yl}piperazin-1-yl)ethanol] the CC50 at 3 days ([1]; MDBK cells) was 61 ± 2.5 µM, the “MNCC (maximum non-cytotoxic concentration)” value (MDBK cells) was 26.1 ± 1.2 µM and the EC50 (BVDV type 1 NADL strain; [2]) was 3.5 ± 0.6 µM. For the same molecule, the “SI (CC50/EC50)” value (BVDV type 1 NADL strain) was 17.4.

With COc1ccc(-c2nc(N3CCN(C)CC3)c3ccccc3n2)cc1 [Compound 1.19, 2-(4-Methoxyphenyl)-4-(4-Methylpiperazin-1-yl)quinazoline] the CC50 at 3 days ([1]; MDBK cells) was 37.1 ± 0.2 µM, the “MNCC (maximum non-cytotoxic concentration)” value (MDBK cells) was 18.3 ± 0.3 µM and the EC50 (BVDV type 1 NADL strain; [2]) was 12.8 ± 0.3 µM. The “SI (CC50/EC50)” value (BVDV type 1 NADL strain) was 2.9.

For Cc1ccc(-c2nc(N3CCN(CCO)CC3)c3ccccc3n2)cc1 [Compound 1.20, 2-{4-[2-(p-Tolyl)quinazolin-4-yl]piperazin-1-yl}ethanol], the CC50 at 3 days ([1]; MDBK cells) was 55.4 ± 4 µM, the “MNCC (maximum non-cytotoxic concentration)” value (MDBK cells) was 30.5 ± 2.1 µM and the EC50 (BVDV type 1 NADL strain; [2]) was 8.5 ± 3.4 µM. The “SI (CC50/EC50)” value (BVDV type 1 NADL strain) was 6.5.

For Clc1ccc2c(NCCN3CCOCC3)ncnc2c1 [Compound 1.21, 7-Chloro-N-(2-Morpholinoethyl)quinazolin-4-amine], the CC50 at 3 days ([1]; MDBK cells) was 59.3 ± 10.7 µM, the “MNCC (maximum non-cytotoxic concentration)” value (MDBK cells) was 17.3 ± 5.2 µM and the EC50 (BVDV type 1 NADL strain; [2]) was 2.3 ± 0.5 µM. For the same molecule, the “SI (CC50/EC50)” value (BVDV type 1 NADL strain) was 25.8.

Work on OCCN1CCN(c2ncnc3cc(Cl)ccc23)CC1 [Compound 1.22, 2-[4-(7-Chloroquinazolin-4-yl)piperazin-1-yl]ethan-1-ol] yielded a CC50 at 3 days ([1]; MDBK cells) of over 100 µM and an EC50 (BVDV type 1 NADL strain; [2]) of 25.8 ± 1.2 µM.

With Clc1ccc2c(NCCN3CCCCC3)ncnc2c1 [Compound 1.23, 7-Chloro-N-[2-(Piperidin-1-yl)ethyl]quinazolin-4-amine] the CC50 at 3 days ([1]; MDBK cells) was over 100 µM, the EC50 (BVDV type 1 NADL strain; [2]) was 4.1 ± 2.2 µM and the “SI (CC50/EC50)” value (BVDV type 1 NADL strain) was over 24.4.

For CN1CCN(c2ncnc3cc(Cl)ccc23)CC1 [Compound 1.24, 7-Chloro-4-(4-Methylpiperazin-1-yl)quinazoline], the CC50 at 3 days [1] was over 100 µM, the EC50 (BVDV type 1 NADL strain; [2]) was 9.3 ± 2.1 µM and the “SI (CC50/EC50)” value (BVDV type 1 NADL strain) was over 10.8.
